Test results as given in US10245261B2, “Substituted indol-5-ol derivatives and their therapeutic applications” (NantBioScience, Inc., priority 2013, dated 2019).
Each block holds one compound with its values, some of them ahead of it.

Columns and labels:
K562 = test: CellTiterBlue cell growth inhibition; type: cell-based; details: Homo sapiens; K562, 72 hours
Protocol: (§1) This example illustrated the proliferating cell growth inhibition of selected compounds from this invention. To do this, the cells were seeded into fresh Iscove's growth medium at a density of 0.4e6 cells/ml and grown in log phase for 24 hr. Cells were then resuspended in their fresh respective growth media at 0.1e^6 cells/ml and plated into 384 well black, clear-bottom microplates at 36 ul/well. Test compounds and controls were initially dissolved in DMSO at the desired concentration, then serially diluted to the assay buffer. These solutions were added and cells were incubated for 72 hours at 37° C. CellTiterBlue (Promega cat# G7572) was added on the Beckman FX. Plates were returned to the 37° C. CO2 incubator for 4 hr and then fluorescence was determined on the Victor plate reader. Data were processed using Microsoft Excel, and GI50 values were generated using Prism (GraphPad Software, San Diego, Calif.).

MV4.11 = test: CellTiterBlue cell growth inhibition; type: cell-based; details: Homo sapiens; MV4.11, 72 hours
Protocol: as §1

[1] = tested on: human MIAPaCa-2 pancreatic carcinoma xenograft; test: Pancreatic carcinoma xenograft in athymic nude mice; type: in vivo, mouse; details: MIAPaCa-2 xenograft; for anti-tumor effect: nude mice, single agent
Protocol: The objective of the third study was to evaluate antitumor activities of novel multiple-kinase inhibitor NTW-3475 in human MIAPaCa-2 pancreatic carcinoma xenograft in athymic nude-Faxn1 mice.
Four animals were randomly assigned to study groups. Each animal was weighed, and then injected subcutaneously in the left and right flank area with 0.1 ml of 5.0×10^7 MIAPaCa-2 cells per mL.
Each test or control animal was on a 5-day on, two-day off for two cycles treatment schedule with negative control vehicle, positive control Abraxane at 20 mg/kg or 25, 50 mg/kg of NTW-3475. Tumor growth was measured with a digital hand held caliper twice weekly (once tumor emerges) prior to the first dosing and then two to three times weekly until euthanized.
The objective of the third study was to evaluate antitumor activities of novel multiple-kinase inhibitor Compound 10, 11, 12, 53, 68, 82, 83, 88, and 90 in human MIAPaCa-2 pancreatic carcinoma xenograft in athymic nude-Faxn1 mice.
Each test or control animal was on a 5-day on, two-day off for three cycles treatment schedule with negative control vehicle or 40 mg/kg of Compound 10, 11, 12, 53, 68, 82, 83, 88 and 90. Tumor growth was measured with a digital hand held caliper twice weekly (once tumor emerges) prior to the first dosing and then two to three times weekly until euthanized.

Abl (H396P) (h) = Abl (H396P) (h) (Homo sapiens, UniProt P00519, H396P); test: KinaseProfiler kinase assay; type: biochemical
Abl (M351T)(h) = Abl (M351T)(h) (Homo sapiens, UniProt P00519, M351T); test: KinaseProfiler kinase assay; type: biochemical
Abl (Q252H) (h) = Abl (Q252H) (h) (Homo sapiens, UniProt P00519, Q252H); test: KinaseProfiler kinase assay; type: biochemical
Abl(T315I)(h) = Abl(T315I)(h) (Homo sapiens, UniProt P00519, T315I); test: KinaseProfiler kinase assay; type: biochemical
Ret (V804L)(h) = Ret (V804L)(h) (Homo sapiens, UniProt P07949, V804L); test: KinaseProfiler kinase assay; type: biochemical
Method in brief: (§2)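 Kinase activity is followed by incorporation of 33P from [γ-33P]ATP in 8 mM MOPS pH 7.0 with 10 mM Mg acetate and 0.2 mM EDTA over 40 min at room temperature. Inhibition is scaled between no-kinase and phosphopeptide control wells.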

Ret(V804M)(h) = Ret(V804M)(h) (Homo sapiens, UniProt P07949, V804M); test: KinaseProfiler kinase assay; type: biochemical
Method in brief: as §2

FGFR2(h) = FGFR2(h) (Homo sapiens, UniProt P21802); test: KinaseProfiler kinase assay; type: biochemical
FGFR3(h) = FGFR3(h) (Homo sapiens, UniProt P22607); test: KinaseProfiler kinase assay; type: biochemical
FGFR4(h) = FGFR4(h) (Homo sapiens, UniProt P22455); test: KinaseProfiler kinase assay; type: biochemical
Flt1(h) = Flt1(h) (Homo sapiens, UniProt P17948); test: KinaseProfiler kinase assay; type: biochemical
Flt4(h) = Flt4(h) (Homo sapiens, UniProt P35916); test: KinaseProfiler kinase assay; type: biochemical
[2] = tested on: TT human Thyroid carcinoma xenograft; test: Thyroid carcinoma xenograft; type: in vivo, mouse
Protocol: This example assesses Compound 10, 53 and 88's anti-tumor activity using a SCID mouse xenograft models for TT human Thyroid carcinoma xenograft (FIGS. 65 to 69.)
On the appropriate days, each animal in an appropriate group will receive a specific amount of Compound 10 either at 50 or 100 mg/kg, and the dosing volume is 10 ml/kg by oral gavage as indicated. Dosing schedule will be once daily for 30 days.
On the appropriate days, each animal in an appropriate group will receive a specific amount of Compound 53 either at 50 or 100 mg/kg, and the dosing volume is 10 ml/kg by oral gavage as indicated. Dosing schedule will be once daily for 30 days.
Dosing schedule will be once daily for 30 days.

Chain of Ret (V804L)(h) (P07949 29-1114 V804L): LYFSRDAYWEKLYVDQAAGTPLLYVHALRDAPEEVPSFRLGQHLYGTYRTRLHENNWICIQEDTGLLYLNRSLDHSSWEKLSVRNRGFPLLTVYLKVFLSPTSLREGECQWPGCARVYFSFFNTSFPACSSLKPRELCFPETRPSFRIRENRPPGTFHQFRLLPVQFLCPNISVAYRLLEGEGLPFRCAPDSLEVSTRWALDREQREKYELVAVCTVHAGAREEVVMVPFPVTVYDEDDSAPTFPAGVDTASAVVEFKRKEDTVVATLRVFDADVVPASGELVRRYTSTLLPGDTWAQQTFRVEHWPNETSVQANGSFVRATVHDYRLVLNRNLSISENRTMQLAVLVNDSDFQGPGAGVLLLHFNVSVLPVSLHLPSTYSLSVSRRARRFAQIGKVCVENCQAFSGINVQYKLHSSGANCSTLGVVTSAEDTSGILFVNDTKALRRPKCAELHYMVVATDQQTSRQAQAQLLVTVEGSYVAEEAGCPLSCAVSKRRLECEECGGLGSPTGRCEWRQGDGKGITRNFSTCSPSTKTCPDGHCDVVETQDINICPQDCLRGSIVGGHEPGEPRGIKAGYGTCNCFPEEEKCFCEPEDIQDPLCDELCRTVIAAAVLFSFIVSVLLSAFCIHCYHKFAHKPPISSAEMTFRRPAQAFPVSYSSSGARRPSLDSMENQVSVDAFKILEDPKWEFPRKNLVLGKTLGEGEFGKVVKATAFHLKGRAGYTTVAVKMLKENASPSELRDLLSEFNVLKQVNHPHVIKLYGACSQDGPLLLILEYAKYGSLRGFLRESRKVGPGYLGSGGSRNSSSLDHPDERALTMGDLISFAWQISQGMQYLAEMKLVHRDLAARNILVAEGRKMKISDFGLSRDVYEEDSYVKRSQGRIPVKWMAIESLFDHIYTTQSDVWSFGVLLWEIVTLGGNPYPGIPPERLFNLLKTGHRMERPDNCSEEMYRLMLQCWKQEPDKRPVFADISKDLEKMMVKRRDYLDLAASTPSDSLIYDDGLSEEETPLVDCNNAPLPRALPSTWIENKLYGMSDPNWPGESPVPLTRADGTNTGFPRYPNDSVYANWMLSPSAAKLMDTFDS
Chain of Flt1(h) (P17948 27-1338): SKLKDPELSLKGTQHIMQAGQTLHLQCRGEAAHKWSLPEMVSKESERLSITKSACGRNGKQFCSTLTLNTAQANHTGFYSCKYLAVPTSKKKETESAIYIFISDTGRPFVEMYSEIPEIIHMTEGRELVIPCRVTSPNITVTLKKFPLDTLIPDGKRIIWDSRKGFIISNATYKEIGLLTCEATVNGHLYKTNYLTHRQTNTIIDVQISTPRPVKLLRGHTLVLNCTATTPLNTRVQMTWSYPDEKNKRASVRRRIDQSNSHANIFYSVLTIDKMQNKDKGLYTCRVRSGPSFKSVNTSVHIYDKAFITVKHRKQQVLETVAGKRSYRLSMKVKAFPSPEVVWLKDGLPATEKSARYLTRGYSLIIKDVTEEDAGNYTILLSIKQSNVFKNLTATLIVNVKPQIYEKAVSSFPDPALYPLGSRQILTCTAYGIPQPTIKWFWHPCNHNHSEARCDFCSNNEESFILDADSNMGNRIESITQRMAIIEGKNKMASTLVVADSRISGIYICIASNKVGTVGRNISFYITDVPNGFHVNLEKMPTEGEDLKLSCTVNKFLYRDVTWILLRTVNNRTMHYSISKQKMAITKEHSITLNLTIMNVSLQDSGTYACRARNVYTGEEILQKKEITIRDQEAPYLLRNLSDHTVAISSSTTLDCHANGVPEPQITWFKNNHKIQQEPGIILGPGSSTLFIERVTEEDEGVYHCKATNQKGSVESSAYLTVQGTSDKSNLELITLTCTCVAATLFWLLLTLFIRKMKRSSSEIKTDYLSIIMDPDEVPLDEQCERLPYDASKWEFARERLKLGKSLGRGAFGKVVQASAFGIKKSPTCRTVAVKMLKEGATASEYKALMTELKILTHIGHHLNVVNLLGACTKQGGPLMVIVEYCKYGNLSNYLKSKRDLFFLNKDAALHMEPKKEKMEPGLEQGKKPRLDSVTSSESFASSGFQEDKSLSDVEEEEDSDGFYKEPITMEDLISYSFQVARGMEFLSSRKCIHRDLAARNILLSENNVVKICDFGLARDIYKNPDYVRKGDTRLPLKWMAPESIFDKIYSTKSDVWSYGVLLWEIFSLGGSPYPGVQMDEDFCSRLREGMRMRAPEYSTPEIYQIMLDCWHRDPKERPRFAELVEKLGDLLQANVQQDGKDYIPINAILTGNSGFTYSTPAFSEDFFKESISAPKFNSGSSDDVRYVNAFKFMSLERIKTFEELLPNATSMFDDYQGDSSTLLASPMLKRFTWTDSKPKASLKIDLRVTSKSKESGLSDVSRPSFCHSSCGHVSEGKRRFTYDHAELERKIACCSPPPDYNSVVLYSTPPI
Chain of FGFR2(h) (P21802 22-821): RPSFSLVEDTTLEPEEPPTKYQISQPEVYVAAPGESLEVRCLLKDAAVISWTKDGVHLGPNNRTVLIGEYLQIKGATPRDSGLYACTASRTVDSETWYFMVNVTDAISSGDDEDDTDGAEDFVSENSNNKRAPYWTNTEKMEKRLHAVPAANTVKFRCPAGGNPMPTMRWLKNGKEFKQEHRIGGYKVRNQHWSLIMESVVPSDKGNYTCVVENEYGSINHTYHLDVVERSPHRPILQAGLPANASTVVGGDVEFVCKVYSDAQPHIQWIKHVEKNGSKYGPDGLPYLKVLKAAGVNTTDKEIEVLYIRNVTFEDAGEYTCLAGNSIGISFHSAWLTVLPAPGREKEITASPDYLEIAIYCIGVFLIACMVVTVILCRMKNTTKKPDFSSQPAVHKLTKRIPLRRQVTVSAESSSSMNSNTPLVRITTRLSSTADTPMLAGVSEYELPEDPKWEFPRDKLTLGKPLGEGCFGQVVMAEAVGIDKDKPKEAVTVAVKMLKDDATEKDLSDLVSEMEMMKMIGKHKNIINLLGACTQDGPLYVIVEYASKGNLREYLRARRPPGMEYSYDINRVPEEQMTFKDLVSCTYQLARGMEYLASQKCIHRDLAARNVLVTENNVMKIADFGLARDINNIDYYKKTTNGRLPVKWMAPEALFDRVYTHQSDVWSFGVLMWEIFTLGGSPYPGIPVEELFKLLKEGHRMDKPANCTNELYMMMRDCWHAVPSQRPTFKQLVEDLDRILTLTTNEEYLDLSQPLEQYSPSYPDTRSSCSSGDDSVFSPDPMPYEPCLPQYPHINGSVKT
Chain of Flt4(h) (P35916 25-1363): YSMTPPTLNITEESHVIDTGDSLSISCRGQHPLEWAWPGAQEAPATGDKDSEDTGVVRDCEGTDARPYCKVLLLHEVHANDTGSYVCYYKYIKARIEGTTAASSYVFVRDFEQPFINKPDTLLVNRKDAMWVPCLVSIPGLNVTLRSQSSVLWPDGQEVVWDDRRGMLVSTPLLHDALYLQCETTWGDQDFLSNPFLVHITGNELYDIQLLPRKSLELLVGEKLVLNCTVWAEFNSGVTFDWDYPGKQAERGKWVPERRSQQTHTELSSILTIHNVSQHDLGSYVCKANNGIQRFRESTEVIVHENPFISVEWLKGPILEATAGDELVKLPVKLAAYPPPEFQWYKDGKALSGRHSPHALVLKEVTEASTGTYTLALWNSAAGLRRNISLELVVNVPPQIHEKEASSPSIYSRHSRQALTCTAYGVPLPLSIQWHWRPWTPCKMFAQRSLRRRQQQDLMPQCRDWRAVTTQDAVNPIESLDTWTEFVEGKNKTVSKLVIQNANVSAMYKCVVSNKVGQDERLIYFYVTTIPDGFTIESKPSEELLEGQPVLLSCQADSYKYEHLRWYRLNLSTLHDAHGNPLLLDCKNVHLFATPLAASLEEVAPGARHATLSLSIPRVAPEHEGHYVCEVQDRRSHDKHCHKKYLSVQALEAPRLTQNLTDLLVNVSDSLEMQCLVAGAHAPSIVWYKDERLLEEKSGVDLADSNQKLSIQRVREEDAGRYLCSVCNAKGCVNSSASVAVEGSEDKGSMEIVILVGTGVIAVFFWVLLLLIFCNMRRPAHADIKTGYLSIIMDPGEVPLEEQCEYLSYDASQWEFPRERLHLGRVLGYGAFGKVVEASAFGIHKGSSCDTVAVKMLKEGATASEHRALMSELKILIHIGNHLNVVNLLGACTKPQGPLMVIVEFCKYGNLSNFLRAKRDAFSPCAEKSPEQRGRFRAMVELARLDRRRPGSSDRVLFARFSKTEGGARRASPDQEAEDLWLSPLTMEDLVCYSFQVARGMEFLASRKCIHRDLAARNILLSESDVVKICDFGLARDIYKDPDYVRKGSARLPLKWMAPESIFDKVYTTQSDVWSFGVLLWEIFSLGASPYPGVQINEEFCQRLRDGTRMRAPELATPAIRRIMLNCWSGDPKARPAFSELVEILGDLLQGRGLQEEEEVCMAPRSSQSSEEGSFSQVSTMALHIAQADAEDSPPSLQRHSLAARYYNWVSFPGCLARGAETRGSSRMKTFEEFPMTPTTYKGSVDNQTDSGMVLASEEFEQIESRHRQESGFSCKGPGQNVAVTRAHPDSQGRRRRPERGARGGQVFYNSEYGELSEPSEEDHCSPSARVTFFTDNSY
Chain of Ret(V804M)(h) (P07949 29-1114 V804M): as the sequence (P07949 29-1114 V804L) above, with L776M counted along it

GI50 (K562): 0.31 nM
GI50 (MV4.11): 0.28 nM
SMILES: Cc1cc2c(F)c(Oc3nc(Nc4cc(C5CC5)[nH]n4)cc(N4CCNCC4)n3)cc(F)c2[nH]1 [Compound 82]
anti-tumor effect in combination with Abraxane [1]: significant antitumor efficacy
anti-tumor effect [1]: strong anti-tumor effect

SMILES: C/C=C/c1cc(Nc2cc(N3CCN(C)CC3)nc(Oc3ccc4[nH]c(C)cc4c3F)n2)n[nH]1 [Compound 53]
IC50 (Abl (H396P) (h); Abl (H396P)): < 0.1 nM
IC50 (Abl (M351T)(h); Abl(M351T)): 0.7 nM
IC50 (Abl (Q252H) (h); Abl (Q252H)): 0.5 nM
IC50 (Abl(T315I)(h); Abl(T315I)): 0.5 nM
IC50 (Ret (V804L)(h); Ret(V804L mutation)): 10 nM
IC50 (Ret(V804M)(h); Ret(V804M mutation)): 6 nM
IC50 (FGFR2(h); FGFR2): 2 nM
IC50 (FGFR3(h); FGFR3): 1 nM
IC50 (FGFR4(h); FGFR4): 13 nM
IC50 (Flt1(h); VEGFR1): 3 nM
IC50 (Flt4(h); VEGFR3): 2 nM
GI50 (K562): 0.69 nM
GI50 (MV4.11): 0.15 nM

SMILES: C/C=C/c1cc(Nc2cc(N3CCNCC3)nc(Oc3ccc4[nH]c(C)cc4c3F)n2)n[nH]1 [Compound 68]
GI50 (K562): 0.26 nM
GI50 (MV4.11): 0.16 nM
anti-tumor effect in combination with Abraxane [1]: significant antitumor efficacy
anti-tumor effect [1]: strong anti-tumor effect

kinase inhibition of T315I abl mutant (Abl(T315I)(h)): inhibits
SMILES: C/C=C/c1cc(Nc2cc(N3CCN(C)CC3)nc(Oc3cc(F)c4[nH]c(C)cc4c3F)n2)n[nH]1 [NTW-3456]
anti-tumor effect in combination with Abraxane [1]: significant anti-tumor activity
anti-tumor effect [1]: some anti-tumor activity
anti-tumor effect [2]: significant anti-tumor activity

SMILES: C/C=C/c1cc(Nc2cc(N3CCN(CCO)CC3)nc(Oc3cc(F)c4[nH]c(C)cc4c3F)n2)n[nH]1 [Compound 88]
GI50 (K562): 0.6 nM
GI50 (MV4.11): 0.16 nM
anti-tumor effect [1]: strong anti-tumor effect
anti-tumor effect [2]: Inhibits Tumor Growth

SMILES: Cc1cc2c(F)c(Oc3nc(Nc4cc(C5CC5)[nH]n4)cc(N4CCN(C)CC4)n3)ccc2[nH]1 [Compound 10]
inhibition at 0.1 µM (Abl (H396P) (h)): 99%
inhibition at 0.1 µM (Abl (M351T)(h)): 99%
inhibition at 0.1 µM (Abl (Q252H) (h)): 99%
inhibition at 0.1 µM (Abl(T315I)(h)): 101%
inhibition at 0.1 µM (Ret (V804L)(h)): 103%
inhibition at 0.1 µM (Ret(V804M)(h)): 96%
inhibition at 0.1 µM (FGFR2(h)): 99%
inhibition at 0.1 µM (FGFR3(h)): 100%
inhibition at 0.1 µM (FGFR4(h)): 88%
inhibition at 0.1 µM (Flt1(h)): 100%
inhibition at 0.1 µM (Flt4(h)): 100%
GI50 (K562): 0.19 nM
GI50 (MV4.11): 0.19 nM
anti-tumor effect [1]: strong anti-tumor effect
anti-tumor effect [2]: anti-tumor effect

inhibition at 0.1 µM (Abl (H396P) (h)): 102%
inhibition at 0.1 µM (Abl (M351T)(h)): 102%
inhibition at 0.1 µM (Abl (Q252H) (h)): 102%
inhibition at 0.1 µM (Abl(T315I)(h)): 102%
inhibition at 0.1 µM (Ret (V804L)(h)): 102%
inhibition at 0.1 µM (Ret(V804M)(h)): 101%
inhibition at 0.1 µM (FGFR2(h)): 99%
inhibition at 0.1 µM (FGFR3(h)): 101%
inhibition at 0.1 µM (FGFR4(h)): 78%
inhibition at 0.1 µM (Flt1(h)): 100%
inhibition at 0.1 µM (Flt4(h)): 100%
GI50 (K562): 0.41 nM
GI50 (MV4.11): 0.29 nM
SMILES: Cc1cc2c(F)c(Oc3nc(Nc4cc(C5CC5)[nH]n4)cc(N4CCNCC4)n3)ccc2[nH]1 [Compound 11, N-(5-cyclopropyl-1H-pyrazol-3-yl)-2-((4-fluoro-2-methyl-1H-indol-5-yl)oxy)-6-(piperazin-1-yl)pyrimidin-4-amine]
anti-tumor effect [1]: strong anti-tumor effect
